Test system: NCI-N87, a human gastric carcinoma cell line
Conditions: read-out: IC50 of NCI-N87 cells, 120 hours incubation, MTT
Description: The inhibition % was calculated according to the following equation: inhibition %=[1-(assay-blank)/(control-blank)]×100.

Work on T-DM1 yielded an IC50 of 0.32 nM.

From patent US20230025327A1, “CONJUGATES OF TUBULYSIN DERIVATIVES AND CELL BINDING MOLECULES AND METHODS OF MAKING” (Hangzhou DAC Biotech Co., Ltd., priority 2019, published 2023)
